From PMC4424350, “Unraveling the Specific Regulation of the Central Pathway for Anaerobic Degradation of 3-Methylbenzoate” (The Journal of Biological Chemistry, 2015)

Biological target: T1, MbdR (MbdR-His6) (Azoarcus sp., UniProt Z9KMW0QJC7)
T1 construct: full-length, C-terminal His6 (pETmbdR), expressed in E. coli BL21(DE3), Ni-NTA; dimer in solution
Test: gel retardation (release of promoter DNA); DNase I footprinting; in vitro transcription
Type: binding
Settings: inducer; 30 nM MbdR-His6 with PO or PB1 DNA probe, 20 mM Tris-HCl pH 7.5, 50 mM KCl, 30 °C

## Cc1cccc(C(=O)SCCNC(=O)CCNC(=O)[C@H](O)C(C)(C)COP(=O)(O)OP(=O)(O)OC[C@H]2O[C@@H](n3cnc4c(N)ncnc43)[C@H](O)[C@@H]2OP(=O)(O)O)c1 [3-methylbenzoyl-CoA]
  gel retardation (release of promoter DNA); DNase I footprinting; in vitro transc: 3-methylbenzoyl-CoA inhibited the interaction of MbdR with the PO and PB1 probes
